In the supplement of paper PMC10627819:

Key:
S. aureus Newman [1] = experiment: Bliss interaction score (quartile over a dose matrix) (fitness difference); higher = more antagonism (negative = synergy)
In short: (§1)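 Each OD595 reading at entry into stationary phase was scaled to the robust mean of the untreated wells on its plate, with a ceiling of 1. These ratios define fitness, and single-drug fitness was inferred from combinations. The Bliss score compares observed fitness with the product-based expectation and is reported as quartiles across all replicate types, technical, biological and donor/recipient.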

S. aureus DSM 20231 [2] = experiment: as above
In short: as §1

S. pneumoniae D39V [3] = experiment: as above
In short: as §1

B. subtilis 168 [4] = experiment: as above
In short: as §1

S. aureus Newman [5] = experiment: fitness (endpoint OD595 vs no drug) (fraction); higher = more growth
In short: (§2)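 In 384-well plates at 37 °C, cultures began at OD595 0.01 in 30 µl, with 55 µl used for S. pneumoniae. OD595 readings every 30 min for 14 h were corrected by the first reading. Fitness divides the stationary-phase transition optical density by the robust mean of no-drug control wells. The result is capped at 1.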

S. aureus DSM 20231 [6] = experiment: as above
In short: as §2

S. pneumoniae D39V [7] = experiment: as above
In short: as §2

B. subtilis 168 [8] = experiment: as above
In short: as §2
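For Bliss interaction score (quartile over a dose matrix) in this document: first quartile when negative (synergy) and third quartile when positive (antagonism).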
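For fitness (endpoint OD595 vs no drug) in this document: OD595 on entry to stationary phase over no-drug wells; at most 1.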

CCC[C@@H]1C[C@@H](C(=O)N[C@@H]([C@H]2O[C@H](SC)[C@H](O)[C@@H](O)[C@H]2O)[C@H](C)Cl)N(C)C1 [Clindamycin] + C[n+]1ccc(-c2cc[n+](C)cc2)cc1 [Paraquat]
Conditions | Bliss interaction score
B. subtilis 168 [4] | 0.0483
S. aureus DSM 20231 [2] | -0.0477
S. aureus Newman [1] | -0.112
S. pneumoniae D39V [3] | 0.0554

fitness
Conditions | partner 1.25 µg/mL | partner 1.5 µg/mL | partner 2.5 µg/mL | partner 3 µg/mL | partner 5 µg/mL | partner 6 µg/mL
B. subtilis 168 [8], first compound 0.0625 µg/mL | 0.607 | – | 0.513 | – | 0.512 | –
B. subtilis 168 [8], first compound 0.125 µg/mL | 0.392 | – | 0.366 | – | 0.359 | –
B. subtilis 168 [8], first compound 0.25 µg/mL | 0.363 | – | 0.352 | – | 0.281 | –
S. aureus DSM 20231 [6], first compound 0.0625 µg/mL | 0.181 | – | 0.192 | – | 0.14 | –
S. aureus DSM 20231 [6], first compound 0.125 µg/mL | 0.0613 | – | 0.113 | – | 0.0771 | –
S. aureus Newman [5], first compound 0.0312 µg/mL | 0.607 | – | 0.57 | – | 0.516 | –
S. aureus Newman [5], first compound 0.0625 µg/mL | 0.271 | – | 0.241 | – | 0.207 | –
S. aureus Newman [5], first compound 0.125 µg/mL | 0.0526 | – | 0.0427 | – | 0.0913 | –
S. pneumoniae D39V [7], first compound 0.0125 µg/mL | – | 0.744 | – | 0.749 | – | 0.733
S. pneumoniae D39V [7], first compound 0.025 µg/mL | – | 0.489 | – | 0.482 | – | 0.458
S. pneumoniae D39V [7], first compound 0.05 µg/mL | – | 0.24 | – | 0.228 | – | 0.195

fitness, one replicate
Conditions | first compound 0.0039 µg/mL | first compound 0.0078 µg/mL | first compound 0.015 µg/mL | first compound 0.0156 µg/mL | first compound 0.03 µg/mL | first compound 0.06 µg/mL
B. subtilis 168 [8], partner 1.25 µg/mL | ≥ 1 | 0.914 | – | 0.847 | – | –
B. subtilis 168 [8], partner 2.5 µg/mL | 0.958 | 0.846 | – | 0.857 | – | –
B. subtilis 168 [8], partner 5 µg/mL | 0.972 | 0.873 | – | 0.83 | – | –
S. pneumoniae D39V [7], partner 1.5 µg/mL | – | – | 0.934 | – | 0.85 | 0.692
S. pneumoniae D39V [7], partner 3 µg/mL | – | – | 0.949 | – | 0.92 | 0.763
S. pneumoniae D39V [7], partner 6 µg/mL | – | – | ≥ 1 | – | 0.914 | 0.805

COc1c(N2C[C@@H]3CCCN[C@@H]3C2)c(F)cc2c(=O)c(C(=O)O)cn(C3CC3)c12 [Moxifloxacin] + Cc1cc(NS(=O)(=O)c2ccc(N)cc2)no1 [Sulfamethoxazol]
Conditions | Bliss interaction score
B. subtilis 168 [4] | -0.0331
S. aureus DSM 20231 [2] | -0.0783
S. aureus Newman [1] | -0.071
S. pneumoniae D39V [3] | -0.0536

fitness
Conditions | partner 1 µg/mL | partner 2 µg/mL | partner 4 µg/mL
B. subtilis 168 [8], first compound 0.0312 µg/mL | 0.0226 | 0.0442 | 0.0303
B. subtilis 168 [8], first compound 0.0625 µg/mL | 0.0292 | 0.0328 | 0.0239
B. subtilis 168 [8], first compound 0.125 µg/mL | 0.0176 | 0.0212 | 0.0185
B. subtilis 168 [8], first compound 2 µg/mL | 0.0112 | 0.0253 | 0.0113
B. subtilis 168 [8], first compound 4 µg/mL | 0.0152 | 0.0241 | 0.0125
B. subtilis 168 [8], first compound 8 µg/mL | 0.0212 | 0.0227 | 0.0093
S. aureus DSM 20231 [6], first compound 0.0075 µg/mL | 0.78 | 0.829 | 0.765
S. aureus DSM 20231 [6], first compound 0.015 µg/mL | 0.69 | 0.724 | 0.76
S. aureus DSM 20231 [6], first compound 0.03 µg/mL | 0.586 | 0.682 | 0.692
S. aureus Newman [5], first compound 0.0075 µg/mL | 0.776 | 0.795 | 0.749
S. pneumoniae D39V [7], first compound 0.005 µg/mL | 0.944 | 0.969 | 0.958
S. pneumoniae D39V [7], first compound 0.01 µg/mL | 0.949 | 0.955 | 0.987
S. pneumoniae D39V [7], first compound 0.02 µg/mL | 0.894 | 0.912 | 0.926

one replicate
Conditions | fitness
B. subtilis 168 [8], first compound 0.0312 µg/mL, partner 0.5 µg/mL | 0.0261
B. subtilis 168 [8], first compound 0.0625 µg/mL, partner 0.5 µg/mL | 0.034
B. subtilis 168 [8], first compound 0.125 µg/mL, partner 0.5 µg/mL | 0.0283
S. aureus DSM 20231 [6], first compound 0.06 µg/mL, partner 1 µg/mL | 0.669
S. aureus DSM 20231 [6], first compound 0.06 µg/mL, partner 2 µg/mL | 0.655
S. aureus DSM 20231 [6], first compound 0.06 µg/mL, partner 4 µg/mL | 0.655
S. aureus DSM 20231 [6], first compound 0.12 µg/mL, partner 1 µg/mL | 0.445
S. aureus DSM 20231 [6], first compound 0.12 µg/mL, partner 2 µg/mL | 0.44
S. aureus DSM 20231 [6], first compound 0.12 µg/mL, partner 4 µg/mL | 0.431
S. aureus Newman [5], first compound 0.0075 µg/mL, partner 8 µg/mL | 0.934
S. aureus Newman [5], first compound 0.015 µg/mL, partner 8 µg/mL | 0.887
S. aureus Newman [5], first compound 0.03 µg/mL, partner 8 µg/mL | 0.784
S. pneumoniae D39V [7], first compound 0.0037 µg/mL, partner 1 µg/mL | 0.897
S. pneumoniae D39V [7], first compound 0.0037 µg/mL, partner 2 µg/mL | 0.856
S. pneumoniae D39V [7], first compound 0.0037 µg/mL, partner 4 µg/mL | 0.797
S. pneumoniae D39V [7], first compound 0.0075 µg/mL, partner 1 µg/mL | 0.869
S. pneumoniae D39V [7], first compound 0.0075 µg/mL, partner 2 µg/mL | 0.857
S. pneumoniae D39V [7], first compound 0.0075 µg/mL, partner 4 µg/mL | 0.797
S. pneumoniae D39V [7], first compound 0.015 µg/mL, partner 1 µg/mL | 0.842
S. pneumoniae D39V [7], first compound 0.015 µg/mL, partner 2 µg/mL | 0.828
S. pneumoniae D39V [7], first compound 0.015 µg/mL, partner 4 µg/mL | 0.79

O=C(O[C@@H]1Cc2c(O)cc(O)cc2O[C@@H]1c1cc(O)c(O)c(O)c1)c1cc(O)c(O)c(O)c1 [EGCG] + Cc1ncc([N+](=O)[O-])n1CCO [Metronidazole]
Conditions | Bliss interaction score
B. subtilis 168 [4] | -0.039
S. aureus DSM 20231 [2] | -0.112
S. aureus Newman [1] | 0.0648
S. pneumoniae D39V [3] | -0.0826

fitness
Conditions | partner 0.625 µg/mL | partner 1.073 µg/mL | partner 1.25 µg/mL | partner 2.145 µg/mL | partner 2.5 µg/mL | partner 4.29 µg/mL | partner 5 µg/mL
B. subtilis 168 [8], first compound 6.25 µg/mL | 0.969 | – | 0.944 | – | 0.928 | – | –
S. aureus DSM 20231 [6], first compound 12.5 µg/mL | 0.853 | – | 0.787 | – | 0.795 | – | –
S. aureus DSM 20231 [6], first compound 25 µg/mL | 0.792 | – | 0.807 | – | 0.838 | – | –
S. aureus DSM 20231 [6], first compound 50 µg/mL | 0.779 | – | 0.753 | – | 0.841 | – | –
S. aureus Newman [5], first compound 12.5 µg/mL | 0.833 | – | 0.847 | – | 0.809 | – | –
S. aureus Newman [5], first compound 25 µg/mL | 0.833 | – | 0.807 | – | 0.785 | – | –
S. aureus Newman [5], first compound 50 µg/mL | 0.769 | – | 0.747 | – | 0.736 | – | –
S. pneumoniae D39V [7], first compound 12.5 µg/mL | – | 0.888 | 0.956 | 0.493 | 0.982 | 0.825 | 0.976
S. pneumoniae D39V [7], first compound 25 µg/mL | – | 0.839 | 0.979 | – | ≥ 1 | – | 0.984
S. pneumoniae D39V [7], first compound 50 µg/mL | – | 0.803 | 0.813 | 0.391 | 0.949 | 0.602 | 0.907

fitness, S. aureus Newman [5], one replicate
Conditions | first compound 12.5 µg/mL | first compound 25 µg/mL | first compound 50 µg/mL
partner 0.781 µg/mL | 0.781 | 0.807 | 0.943
partner 1.562 µg/mL | 0.8 | 0.833 | ≥ 1
partner 3.124 µg/mL | 0.782 | 0.81 | 0.963
